Common to all, as to type: cell-based
For assay [1], the system named is Candida glabrata ATCC 15126. The experiment in a line: MIC assay (CLSI M27-A3), Candida glabrata ATCC 15126. The conditions noted are these: for MIC: Nakaseomyces glabratus, read-out: MIC, Candida glabrata ATCC 15126. Here is the method: (§1) After a test compound was serially diluted, an MIC (minimum inhibitory concentration) assay was performed on the standard Candida strain and an MEC (minimum effective concentration) assay on the standard Aspergillus strain. The MIC assay was performed according to the guidelines of the Clinical and Laboratory Standards Institute (CLSI M27-A3) and the MEC assay according to the guidelines of the Clinical and Laboratory Standards Institute (CLSI M38-A2).
(§2) The frozen strain was passaged at least twice, and a single colony was picked and resuspended in normal saline or sterile water in a tube. The suspension was vortexed and adjusted to 0.5 McF (1×10^6 to 5×10^6 CFU/mL) using a spectrophotometer at wavelength 530 nm. The suspension was 50-fold diluted with normal saline and then 20-fold diluted with 1×RPMI 1640 broth (1×10^3 to 5×10^3 CFU/mL). 10 μL of the suspension was applied to an SDA plate for colony counting, with a range from about 10 to 50 single colonies.
(§3) At this time, the bacterium concentration in each well should be 0.5×10^3 to 2.5×10^3 CFU/mL.
(§4) For echinocandin drugs, Aspergillus was incubated at 28° C. for 21-26 h, and then the MEC results were read.
(§5) Yeast-type fungi: A disposable sealing film was applied to the 96-well plate, and the mixture was well mixed by shaking. Observation was performed through a plate reader with the naked eye. Comparisons were made to the growth control, and the minimum compound concentration corresponding to ≥50% growth inhibition was defined as MIC. Pictures were taken and saved using an automatic plate reader.

The subject of assay [2] is Candida parapsilosis ATCC 22019. The experiment in a line: MIC assay (CLSI M27-A3), Candida parapsilosis ATCC 22019. The conditions noted are these: for MIC: Lodderomyces parapsilosis, ATCC22019, 24 h, read-out: MIC, Candida parapsilosis ATCC 22019. As to the method: as §1, §2, §3, §4, §5
The test system of assay [3] is Aspergillus flavus ATCC 28539. In words: MEC assay (CLSI M38-A2), Aspergillus flavus ATCC 28539. As to conditions: first batch; 28° C., 21-26 h. Here is the method: The MIC assay was performed according to the guidelines of the Clinical and Laboratory Standards Institute (CLSI M27-A3) and the MEC assay according to the guidelines of the Clinical and Laboratory Standards Institute (CLSI M38-A2).
Colonies on the plate were covered with about 1 mL of 0.85% normal saline or sterile water (polysorbate 20 was added at a final concentration of 0.1%-0.01%). […] The homogeneous upper layer of the suspension was transferred to a new sterile tube, which was then sealed and vortexed for 15 s (be careful as the suspension may produce an aerosol when the cover is removed). The concentration of the suspension was adjusted until an OD value of 0.09-0.13 was achieved using a spectrophotometer at 530 nm. […] 100 μL of sample was added to each well of the 96-well plate within 2 h after dilution (the final spore concentration in the susceptibility testing plate was at 0.4×10^4 to 5×10^4 CFU/mL).
Aspergillus: For echinocandin drugs, comparisons were made to the growth control under a plate reader, and the minimum drug concentration that could cause the hyphae to form small, round, compact hyphal particles was defined as MEC. For accurate determination of MEC values, the plate must not be vortexed before reading.

The test system of assay [4] is Meyerozyma guilliermondii ATCC 6260. The experiment in a line: MIC assay (CLSI M27-A3), Meyerozyma guilliermondii ATCC 6260. The conditions noted are these: for MIC: Meyerozyma guilliermondii, read-out: MIC, Meyerozyma guilliermondii ATCC 6260. As to the method:
as §1, §2, §3, §4, §5

The subject of assay [5] is Candida tropicalis ATCC 750. In words: MIC assay (CLSI M27-A3), Candida tropicalis ATCC 750. The conditions noted are these: for MIC: Candida tropicalis, read-out: MIC, Candida tropicalis ATCC 750. Here is the method: as §1, §2, §3, §4, §5
The subject of assay [6] is Candida albicans ATCC 90029. In words: MIC assay (CLSI M27-A3), Candida albicans ATCC 90029. The conditions noted are these: for MIC: Candida albicans, read-out: MIC, Candida albicans ATCC 90029. Here is the method: as §1, §2, §3, §4, §5
Assay [7] deals with Candida krusei ATCC 6258. The experiment in a line: MIC assay (CLSI M27-A3), Candida krusei ATCC 6258. The conditions noted are these: for MIC: Pichia kudriavzevii, ATCC6258, 24 h, read-out: MIC, Candida krusei ATCC 6258. Here is the method:
as §1, §2, §3, §4, §5

The mark [8] stands for this setting: ATCC15126, first batch, 24 h, 35° C., ≥50% growth inhibition.
[9] abbreviates: ATCC6260, first batch, 24 h, 35° C.
The mark [10] stands for this setting: ATCC750, first batch, 24 h, 35° C.
Setting [11] is: ATCC90029, first batch, 24 h, 35° C., ≥50% growth inhibition.
The mark [12] stands for this setting: first batch, 24 h, 35° C., ≥50% growth inhibition.
The mark [13] stands for this setting: first batch, 24 h, 35° C., quality control strain.

Read-outs that look alike come from different tables or passages of the source. Starred links: 1 amine or outer side, 2 acyl side, 3 side chain; linkers in the order of their positions; H or OH if unused. Positions of bridges follow the written chain, without caps; N, C: chain ends. Non-standard residues stand in square brackets, D forms with d. Residues, ends and D or L forms follow the SMILES beside them. *: point of attachment. Orn(4R-OH,5R-OCH2CH2NMe3+) = C[N+](C)(C)CCO[C@@H](N[*:3])[C@H](O)C[C@H](N[*:1])C(=O)[*:2]; hTyr(3S-OH,4S-OH) = N[C@H](C(=O)O)[C@H](O)[C@@H](O)c1ccc(O)cc1; X1 = O=C(c1ccc(-c2ccc(-c3ccc(OCCCCCF)cc3)cc2)cc1)*; Pro(3S-OH,4S-Me) = C[C@H]1CN[C@H](C(=O)O)[C@H]1O; Hyp = O=C(O)[C@@H]1C[C@@H](O)CN1

For `CCCCCOc1ccc(-c2ccc(-c3ccc(C(=O)N[C@H]4C[C@@H](O)[C@@H](OCC5CCCC[N+]5(C)C)NC(=O)[C@@H]5[C@@H](O)[C@@H](C)CN5C(=O)[C@H]([C@@H](C)O)NC(=O)[C@H]([C@H](O)[C@@H](O)c5ccc(O)cc5)NC(=O)[C@@H]5C[C@@H](O)CN5C(=O)[C@H]([C@@H](C)O)NC4=O)cc3)cc2)cc1` (some centres unmarked) [Example 2], the minimal inhibitory concentration (MIC) was determined as 0.125 µg/mL in assay [1] (setting [8]); 1 µg/mL in assay [2]; 2 µg/mL in assay [4] (setting [9]); 0.016 µg/mL in assay [5] (setting [10]); 0.125 µg/mL in assay [6] (setting [11]); 0.125 µg/mL in assay [7]. Moreover, the “MEC, Aspergillus flavus ATCC 28539” value in assay [3] was 0.031 µg/mL.

Regarding “Caspofungin acetate [reference compound]”, the “MIC, Candida glabrata ATCC 15126” value in assay [1] (setting [12]) was found to be 0.25 µg/mL. In addition, the “MIC, Candida parapsilosis ATCC 22019” value in assay [2] (setting [13]) was found to be 1 µg/mL. Further, the “MEC, Aspergillus flavus ATCC 28539” value in assay [3] was 0.031 µg/mL. In addition, the “MIC, Meyerozyma guilliermondii ATCC 6260” value in assay [4] (first batch, 24 h, 35° C.) was determined as 1 µg/mL. Further, the “MIC, Candida tropicalis ATCC 750” value in assay [5] (first batch, 24 h, 35° C.) worked out at 0.016 µg/mL. Moreover, in assay [6] (setting [12]), the “MIC, Candida albicans ATCC 90029” value is 0.063 µg/mL. Further, the “MIC, Candida krusei ATCC 6258” value in assay [7] (setting [13]) stood at 1 µg/mL.

Turning to `CCCCCOc1ccc(-c2ccc(-c3ccc(C(=O)N[C@H]4C[C@@H](O)[C@@H](OCC[N+]5(C)CCCCC5)NC(=O)[C@@H]5[C@@H](O)[C@@H](C)CN5C(=O)[C@H]([C@@H](C)O)NC(=O)[C@H]([C@H](O)[C@@H](O)c5ccc(O)cc5)NC(=O)[C@@H]5C[C@@H](O)CN5C(=O)[C@H]([C@@H](C)O)NC4=O)cc3)cc2)cc1` [Example 10], the minimum inhibitory concentration (MIC) turned out to be 0.5 µg/mL in assay [1] (setting [8]); 2 µg/mL in assay [2]; 4 µg/mL in assay [4] (setting [9]); 0.031 µg/mL in assay [5] (setting [10]); 0.25 µg/mL in assay [6] (setting [11]); 0.5 µg/mL in assay [7]. Moreover, in assay [3], the “MEC, Aspergillus flavus ATCC 28539” value was 0.031 µg/mL.

Regarding `C[C@@H](O)[C@@H]1NC(=O)[C@H]([C@H](O)[C@@H](O)c2ccc(O)cc2)NC(=O)[C@@H]2C[C@@H](O)CN2C(=O)[C@H]([C@@H](C)O)NC(=O)[C@@H](NC(=O)c2ccc(-c3ccc(-c4ccc(OCCCCCF)cc4)cc3)cc2)C[C@@H](O)[C@@H](OCC[N+](C)(C)C)NC(=O)[C@@H]2[C@@H](O)[C@@H](C)CN2C1=O` [Example 11] (X1-[Orn(4R-OH,5R-OCH2CH2NMe3+)]T[Hyp][hTyr(3S-OH,4S-OH)]T[Pro(3S-OH,4S-Me)]; lactam 1-C), the MIC in assay [1] (ATCC15126, 24 h) was 0.5 µg/mL; in assay [2], 4 µg/mL; in assay [4] (ATCC6260, 24 h), 2 µg/mL; in assay [5] (ATCC750, 24 h), 0.031 µg/mL; in assay [6] (ATCC90029, 24 h), 0.125 µg/mL; in assay [7] it was 0.5 µg/mL. In addition, the “MEC, Aspergillus flavus ATCC 28539” value in assay [3] was 0.031 µg/mL.

For the compound `CCCCCOc1ccc(-c2ccc(-c3ccc(C(=O)N[C@H]4C[C@@H](O)[C@@H](OCC[N+]5(C)CCCC5)NC(=O)[C@@H]5[C@@H](O)[C@@H](C)CN5C(=O)[C@H]([C@@H](C)O)NC(=O)[C@H]([C@H](O)[C@@H](O)c5ccc(O)cc5)NC(=O)[C@@H]5C[C@@H](O)CN5C(=O)[C@H]([C@@H](C)O)NC4=O)cc3)cc2)cc1` [Example 5], the MIC in assay [1] (setting [8]) stood at 0.125 µg/mL; in assay [2], 2 µg/mL; in assay [4] (setting [9]), 4 µg/mL; in assay [5] (setting [10]) it was 0.016 µg/mL; in assay [6] (setting [11]) it was 0.125 µg/mL; in assay [7], 0.125 µg/mL. In addition, the “MEC, Aspergillus flavus ATCC 28539” value in assay [3] was determined as 0.031 µg/mL.

The term MIC denotes the lowest concentration that inhibits growth of the organism.

The values above are taken from patent US12466856B2, “Echinocandin analogues and preparation method therefor” (SHANGHAI SENHUI MEDICINE CO., LTD., priority 2019, dated 2025).
